Results from patent US8124793B2, “Derivatives of ethylene methanedisulfonate as cancer chemotherapeutic agents” (priority 2007, dated 2012).

Tests used:
Type in all cases: cell-based
SF-539 = assay: NCI screen, growth of human tumor cells: CNS Cancer SF-539; conditions: SF-539 (CNS Cancer), 10^−4 molar
Experimental: (§1) In the NCI screening process, each compound was tested and described by a minimum of 60 data points. The test data include, but are not limited to the type of cancer, the molar concentration used in the screen, and the percent growth of the cancer. In some cases, NMR and elemental analysis were used for structural assignment.

MOLT-4 = assay: NCI screen, growth of human tumor cells: Leukemia MOLT-4; conditions: MOLT-4 (Leukemia), 10^−4 molar
Experimental: as §1

CCRF-CEM = assay: NCI screen, growth of human tumor cells: Leukemia CCRF-CEM; conditions: CCRF-CEM (Leukemia), 10^−4 molar
Experimental: as §1

human cancer cells = assay: NCI screen summary over the cancers tested (negative growth of human cancer cells); conditions: 10^−4 M conc.; cancers with negative growth / cancers tested
Experimental: as §1
The derivatives in the tables are grouped using the same category as in the tables 1-6.

K562 = assay: NCI screen, growth of human tumor cells: Leukemia K562; conditions: K562 (Leukemia), 10^−4 molar
Experimental: as §1

ACHN = assay: NCI screen, growth of human tumor cells: Renal Cancer ACHN; conditions: ACHN (Renal Cancer), 10^−4 molar
Experimental: as §1

U-251 = assay: NCI screen, growth of human tumor cells: CNS Cancer U-251; conditions: U-251 (CNS Cancer), 10^−4 molar
Experimental: as §1

CAKI-1 = assay: NCI screen, growth of human tumor cells: Renal Cancer CAKI-1; conditions: CAKI-1 (Renal Cancer), 10^−4 molar
Experimental: as §1

SNB-75 = assay: NCI screen, growth of human tumor cells: CNS Cancer SNB-75; conditions: SNB-75 (CNS Cancer), 10^−4 molar
Experimental: as §1

SF-268 = assay: NCI screen, growth of human tumor cells: CNS Cancer SF-268; conditions: SF-268 (CNS Cancer), 10^−4 molar
Experimental: as §1

UACC-62 = assay: NCI screen, growth of human tumor cells: Melanoma UACC-62; conditions: UACC-62 (Melanoma), 10^−4 molar
Experimental: as §1

SNB-19 = assay: NCI screen, growth of human tumor cells: CNS Cancer SNB-19
Experimental: as §1

NCI-H460 = assay: NCI screen, growth of human tumor cells: Non-Small Cell Lung NCI-H460; conditions: NCI-H460 (Non-Small Cell Lung), 10^−4 molar
Experimental: as §1

PC-3 = assay: NCI screen, growth of human tumor cells: Prostate Cancer PC-3; conditions: PC-3 (Prostate Cancer), 10^−4 molar
Experimental: as §1

LOXIMVI = assay: NCI screen, growth of human tumor cells: Melanoma LOXIMVI; conditions: LOXIMVI (Melanoma), 10^−4 molar
Experimental: as §1

HCT-116 = assay: NCI screen, growth of human tumor cells: Colon Cancer HCT-116; conditions: HCT-116 (Colon Cancer), 10^−4 molar
Experimental: as §1

SN12C = assay: NCI screen, growth of human tumor cells: Renal Cancer SN12C; conditions: SN12C (Renal Cancer), 10^−4 molar
Experimental: as §1

BT-549 = assay: NCI screen, growth of human tumor cells: Breast Cancer BT-549; conditions: BT-549 (Breast Cancer), 10^−4 molar
Experimental: as §1

HS 578T = assay: NCI screen, growth of human tumor cells: Breast Cancer HS 578T; conditions: HS 578T (Breast Cancer), 10^−4 molar
Experimental: as §1

MALME-3M = assay: NCI screen, growth of human tumor cells: Melanoma MALME-3M; conditions: MALME-3M (Melanoma), 10^−4 molar
Experimental: as §1

NCI-H23 = assay: NCI screen, growth of human tumor cells: Non-Small Cell Lung NCI-H23; conditions: NCI-H23 (Non-Small Cell Lung), 10^−4 molar
Experimental: as §1

SK-MEL-5 = assay: NCI screen, growth of human tumor cells: Melanoma SK-MEL-5; conditions: SK-MEL-5 (Melanoma), 10^−4 molar
Experimental: as §1

NCI-H522 = assay: NCI screen, growth of human tumor cells: Non-Small Cell Lung NCI-H522; conditions: NCI-H522 (Non-Small Cell Lung), 10^−4 molar
Experimental: as §1

IGROVI = assay: NCI screen, growth of human tumor cells: Ovarian Cancer IGROVI; conditions: IGROVI (Ovarian Cancer), 10^−4 molar
Experimental: as §1

COLO205 = assay: NCI screen, growth of human tumor cells: Colon Cancer COLO205; conditions: COLO205 (Colon Cancer), 10^−4 molar
Experimental: as §1

MCF 7 = assay: NCI screen, growth of human tumor cells: Breast Cancer MCF 7; conditions: MCF 7 (Breast Cancer), 10^−4 molar
Experimental: as §1

HCC-2998 = assay: NCI screen, growth of human tumor cells: HCC-2998 (listed under Non-Small Cell Lung); conditions: HCC-2998 (under Non-Small Cell Lung), 10^−4 molar
Experimental: as §1

HOP-92 = assay: NCI screen, growth of human tumor cells: Non-Small Cell Lung HOP-92; conditions: HOP-92 (Non-Small Cell Lung), 10^−4 molar
Experimental: as §1

MDA-MB-435 = assay: NCI screen, growth of human tumor cells: Breast Cancer MDA-MB-435; conditions: MDA-MB-435, 10^−4 molar
Experimental: as §1

OVCAR-3 = assay: NCI screen, growth of human tumor cells: Ovarian Cancer OVCAR-3; conditions: OVCAR-3 (Ovarian Cancer), 10^−4 molar
Experimental: as §1

UACC-257 = assay: NCI screen, growth of human tumor cells: Melanoma UACC-257; conditions: UACC-257 (Melanoma), 10^−4 molar
Experimental: as §1

MCF7/ADR-RES = assay: NCI screen, growth of human tumor cells: Breast Cancer MCF7/ADR-RES; conditions: MCF7/ADR-RES (Breast Cancer), 10^−4 molar
Experimental: as §1

DU-145 = assay: NCI screen, growth of human tumor cells: Prostate Cancer DU-145; conditions: DU-145 (Prostate Cancer), 10^−4 molar
Experimental: as §1

OVCAR-4 = assay: NCI screen, growth of human tumor cells: Ovarian Cancer OVCAR-4; conditions: OVCAR-4 (Ovarian Cancer), 10^−4 molar
Experimental: as §1

HCT-15 = assay: NCI screen, growth of human tumor cells: Colon Cancer HCT-15; conditions: HCT-15 (Colon Cancer), 10^−4 molar
Experimental: as §1

CC1S(=O)(=O)OCCOS1(=O)=O [NSC 372239]
percent of growth of human tumor cells (SF-539): 28%
percent of growth of human tumor cells (MOLT-4): 12%
percent of growth of human tumor cells (CCRF-CEM): −6%
Percentage of cancers showing negative growth cancers tested (human cancer cells): 2/12 = 17%
percent of growth of human tumor cells (K562): 12%
percent of growth of human tumor cells (ACHN): 20%
percent of growth of human tumor cells (U-251): 16%
percent of growth of human tumor cells (CAKI-1): 20%
percent of growth of human tumor cells (SNB-75): 28%
percent of growth of human tumor cells (SF-268): 29%
percent of growth of human tumor cells (UACC-62): −14%
percent of growth of human tumor cells (SNB-19; SNB-19 (CNS Cancer), 10^−4 molar): 26%
percent of growth of human tumor cells (NCI-H460): 2%

O=S(=O)([O-])OCCCC1S(=O)(=O)OCCOS1(=O)=O.[Na+] [NSC 674994, butane-1-[hydroxyhydrogensulfate]-4,4-[ethylenedisulfonate]]
Percentage of cancers showing negative growth cancers tested (human cancer cells): 10^−4 M conc. = 0/1 = 0%
% Growth (SNB-19; SNB-19, 10^−4 molar): 36%
% Growth (SNB-19; SNB-19, 10^−5 molar): 45%
% Growth (SNB-19; SNB-19, 10^−6 molar): 47%
% Growth (SNB-19; SNB-19, 10^−7 molar): 73%
% Growth (SNB-19; SNB-19, 10^−8 molar): 67%

O=S1(=O)OCCOS(=O)(=O)[C-]1S(=O)(=O)c1cccc2ccccc12.[Na+] [NSC 679044]
percent of growth of human tumor cells (PC-3): 23%
Percentage of cancers showing negative growth cancers tested (human cancer cells): 10^−4 M conc. = 1/4 = 25%
percent of growth of human tumor cells (K562): 15%
percent of growth of human tumor cells (LOXIMVI): 23%
percent of growth of human tumor cells (HCT-116): −52%

CCOCC1(CC2=C(C)C(=O)c3ccccc3C2=O)S(=O)(=O)OCCOS1(=O)=O [NSC 698124]
percent of growth of human tumor cells (SN12C): −25%
percent of growth of human tumor cells (BT-549): 27%
percent of growth of human tumor cells (HS 578T): 27%
percent of growth of human tumor cells (MALME-3M): −9%
Percentage of cancers showing negative growth cancers tested (human cancer cells): 10^−4 M conc. = 8/25 = 32%
percent of growth of human tumor cells (NCI-H23): 16%
percent of growth of human tumor cells (SK-MEL-5): 9%
percent of growth of human tumor cells (NCI-H522): −45%
percent of growth of human tumor cells (IGROVI): 6%
percent of growth of human tumor cells (COLO205): −25%
percent of growth of human tumor cells (MCF 7): 19%
percent of growth of human tumor cells (LOXIMVI): −55%
percent of growth of human tumor cells (HCC-2998): 8%
percent of growth of human tumor cells (U-251): 20%
percent of growth of human tumor cells (HOP-92): 27%
% Growth (MDA-MB-435): −74%
percent of growth of human tumor cells (SNB-75): 11%
percent of growth of human tumor cells (SF-268): 20%
percent of growth of human tumor cells (OVCAR-3): −17%
percent of growth of human tumor cells (UACC-257): 12%
percent of growth of human tumor cells (UACC-62): −32%
percent of growth of human tumor cells (MCF7/ADR-RES): 30%
percent of growth of human tumor cells (NCI-H460): 11%
percent of growth of human tumor cells (DU-145): 27%
percent of growth of human tumor cells (OVCAR-4): 14%
percent of growth of human tumor cells (HCT-15): 15%
